Measurements: ChEMBL document CHEMBL3856250, “Discovery of 6-Fluoro-5-(R)-(3-(S)-(8-fluoro-1-methyl-2,4-dioxo-1,2-dihydroquinazolin-3(4H)-yl)-2-methylphenyl)-2-(S)-(2-hydroxypropan-2-yl)-2,3,4,9-tetrahydro-1H-carbazole-8-carboxamide (BMS-986142): A Reversible Inhibitor of Bruton's Tyrosine Kinase (BTK) Conformationally Constrained by Two …” (J Med Chem, 2016)
pIC50: −log10 of the molar value.

Legend:
[1] = Protein binding in monkey plasma; type: ADME, cell-free, Macaca mulatta; settings: rhesus monkey, read-out: PPB (converted)
[2] = Oral bioavailability in dog at 2 mg/kg; type: ADME, organism-based, Canis lupus familiaris; settings: in vivo
[3] = Aqueous solubility of the compound; type: physicochemical; settings: aqueous medium
[4] = Tmax in rat at 5 mg/kg, po; type: ADME, organism-based; settings: in vivo
[5] = biological target: Proto-oncogene tyrosine-protein kinase Src (Homo sapiens, UniProt P12931); assay: Inhibition of SRC (unknown origin)
Sequence of Proto-oncogene tyrosine-protein kinase Src (P12931 2-536 limits assumed): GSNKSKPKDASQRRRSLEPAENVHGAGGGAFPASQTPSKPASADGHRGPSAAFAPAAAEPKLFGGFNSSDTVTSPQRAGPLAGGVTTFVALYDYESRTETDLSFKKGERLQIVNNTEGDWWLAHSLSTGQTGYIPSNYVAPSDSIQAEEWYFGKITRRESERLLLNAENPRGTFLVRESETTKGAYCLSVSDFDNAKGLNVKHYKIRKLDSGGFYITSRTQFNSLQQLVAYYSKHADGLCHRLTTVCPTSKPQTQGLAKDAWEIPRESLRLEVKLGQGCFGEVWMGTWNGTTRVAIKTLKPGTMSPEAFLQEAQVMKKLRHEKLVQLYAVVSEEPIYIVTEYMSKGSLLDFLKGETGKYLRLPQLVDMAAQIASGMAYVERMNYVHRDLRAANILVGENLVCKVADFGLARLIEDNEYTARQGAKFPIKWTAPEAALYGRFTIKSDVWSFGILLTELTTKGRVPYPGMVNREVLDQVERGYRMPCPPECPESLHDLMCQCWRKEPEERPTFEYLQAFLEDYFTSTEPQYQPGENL

[6] = Half life in mouse at 3 mg/kg, iv; type: ADME, organism-based; settings: in vivo
[7] = Volume of distribution at steady state in rat at 2 mg/kg, iv; type: ADME, organism-based; settings: in vivo, read-out: Vdss
[8] = Cmax in mouse at 10 mg/kg, iv or po; type: ADME, organism-based; settings: in vivo
[9] = AUC in dog at 2 mg/kg, po; type: ADME, organism-based, Canis lupus familiaris; settings: in vivo
[10] = Protein binding in dog plasma; type: ADME, cell-free, Canis lupus familiaris; settings: read-out: PPB (converted)
[11] = Protein binding in mouse plasma; type: ADME, cell-free; settings: read-out: PPB (converted)
[12] = Cmax in mouse at 6 mg/kg, po; type: ADME, organism-based; set-up: dose 6 mg/kg, route oral; settings: in vivo
[13] = Clearance in rat at 2 mg/kg, iv; type: ADME, organism-based; settings: in vivo
[14] = Cmax in cynomolgus monkey at 4 mg/kg, po; type: ADME, organism-based, Macaca fascicularis; set-up: dose 4 mg/kg, route oral; settings: in vivo
Cytochrome P450 2C9 = Cytochrome P450 2C9 (Homo sapiens, UniProt P11712); assay: Inhibition of CYP2C9 (unknown origin); type: ADME
Sequence of Cytochrome P450 2C9 (P11712 whole entry): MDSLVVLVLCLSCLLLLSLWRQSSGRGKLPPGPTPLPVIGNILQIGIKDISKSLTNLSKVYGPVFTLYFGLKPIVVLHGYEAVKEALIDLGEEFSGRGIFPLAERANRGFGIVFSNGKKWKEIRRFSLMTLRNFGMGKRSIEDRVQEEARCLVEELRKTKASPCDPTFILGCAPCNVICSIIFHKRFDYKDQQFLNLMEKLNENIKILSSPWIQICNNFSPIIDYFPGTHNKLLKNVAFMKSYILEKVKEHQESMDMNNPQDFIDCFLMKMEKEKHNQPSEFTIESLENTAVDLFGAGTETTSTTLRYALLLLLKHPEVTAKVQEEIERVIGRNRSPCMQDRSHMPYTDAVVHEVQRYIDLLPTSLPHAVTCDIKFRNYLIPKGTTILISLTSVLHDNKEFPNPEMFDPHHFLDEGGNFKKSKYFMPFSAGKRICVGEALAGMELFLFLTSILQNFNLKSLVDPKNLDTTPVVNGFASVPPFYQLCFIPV

[15] = Distribution coefficient, log D of the compound at pH 7.0 by HPLC method; type: physicochemical; settings: octanol/water
Cytochrome P450 2C19 = Cytochrome P450 2C19 (Homo sapiens, UniProt P33261); assay: Inhibition of CYP2C19 (unknown origin); type: ADME
Sequence of Cytochrome P450 2C19 (P33261 whole entry): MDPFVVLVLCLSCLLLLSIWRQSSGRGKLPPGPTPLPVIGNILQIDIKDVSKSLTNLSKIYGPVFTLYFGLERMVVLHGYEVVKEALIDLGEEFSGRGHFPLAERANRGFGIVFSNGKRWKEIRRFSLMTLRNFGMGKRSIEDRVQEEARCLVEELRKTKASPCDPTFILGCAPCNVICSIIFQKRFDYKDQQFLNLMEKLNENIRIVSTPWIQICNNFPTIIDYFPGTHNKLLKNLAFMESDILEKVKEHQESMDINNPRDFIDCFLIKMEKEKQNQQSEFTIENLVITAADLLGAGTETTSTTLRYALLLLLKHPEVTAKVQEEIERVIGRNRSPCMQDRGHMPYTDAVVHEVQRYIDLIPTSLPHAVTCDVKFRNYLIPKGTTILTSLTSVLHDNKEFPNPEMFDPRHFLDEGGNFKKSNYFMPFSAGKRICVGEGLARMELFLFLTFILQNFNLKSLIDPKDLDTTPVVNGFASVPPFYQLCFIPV

[16] = biological target: T1, Tyrosine-protein kinase BTK (Homo sapiens, UniProt Q06187); assay: Inhibition of BTK in human PBM cells assessed as suppression of FCRgammaR/immune complex-stimulated TNFalpha production; type: cell-based
T1 sequence (Q06187 whole entry): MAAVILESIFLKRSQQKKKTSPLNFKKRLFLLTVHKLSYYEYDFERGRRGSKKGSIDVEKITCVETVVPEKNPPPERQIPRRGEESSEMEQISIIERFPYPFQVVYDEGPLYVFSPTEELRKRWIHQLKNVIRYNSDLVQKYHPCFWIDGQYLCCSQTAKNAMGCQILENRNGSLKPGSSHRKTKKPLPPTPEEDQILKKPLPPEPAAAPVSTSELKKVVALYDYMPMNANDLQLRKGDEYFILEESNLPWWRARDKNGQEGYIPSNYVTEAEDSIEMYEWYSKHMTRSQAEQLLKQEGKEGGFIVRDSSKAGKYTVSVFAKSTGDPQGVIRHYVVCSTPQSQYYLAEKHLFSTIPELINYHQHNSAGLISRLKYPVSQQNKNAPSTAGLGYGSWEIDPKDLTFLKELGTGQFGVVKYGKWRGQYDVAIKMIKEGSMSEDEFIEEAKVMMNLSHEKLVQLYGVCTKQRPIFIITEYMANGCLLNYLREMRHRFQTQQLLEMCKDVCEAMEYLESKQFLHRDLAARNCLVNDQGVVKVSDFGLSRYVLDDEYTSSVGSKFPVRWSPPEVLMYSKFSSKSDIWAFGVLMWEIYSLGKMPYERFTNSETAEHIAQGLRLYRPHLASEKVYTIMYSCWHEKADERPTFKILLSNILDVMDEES

[17] = Cmax in rat at 5 mg/kg, po; type: ADME, organism-based; set-up: dose 5 mg/kg, route oral; settings: in vivo
[18] = AUC in mouse at 6 mg/kg, po; type: ADME, organism-based; settings: in vivo
Cytochrome P450 2C8 = biological target: T2, Cytochrome P450 2C8 (Homo sapiens, UniProt P10632); assay: Inhibition of CYP2C8 (unknown origin); type: ADME
T2 sequence (P10632 whole entry): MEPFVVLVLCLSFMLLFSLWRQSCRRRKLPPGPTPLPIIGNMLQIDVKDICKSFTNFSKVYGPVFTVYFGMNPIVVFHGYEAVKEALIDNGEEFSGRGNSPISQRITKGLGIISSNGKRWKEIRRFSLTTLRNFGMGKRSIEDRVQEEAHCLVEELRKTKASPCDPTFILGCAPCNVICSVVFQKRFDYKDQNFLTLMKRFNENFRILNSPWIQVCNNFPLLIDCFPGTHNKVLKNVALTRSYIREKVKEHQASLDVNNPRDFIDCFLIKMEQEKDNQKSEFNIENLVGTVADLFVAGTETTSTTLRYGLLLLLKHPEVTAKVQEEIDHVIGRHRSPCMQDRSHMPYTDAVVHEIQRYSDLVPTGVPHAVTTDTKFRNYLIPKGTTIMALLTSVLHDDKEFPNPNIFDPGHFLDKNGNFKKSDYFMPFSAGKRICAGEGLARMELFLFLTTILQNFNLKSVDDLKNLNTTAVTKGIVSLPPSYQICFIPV

[19] = Volume of distribution at steady state in mouse at 3 mg/kg, iv; type: ADME, organism-based; settings: in vivo, read-out: Vdss
[20] = Drug metabolism in po dosed rat plasma assessed as isomerization of atropisomeric center after 24 hrs; type: ADME, organism-based; settings: read-out: Drug metabolism
[21] = AUC in mouse at 10 mg/kg; type: ADME, organism-based; settings: in vivo
[22] = MRT in cynomolgus monkey at 2 mg/kg, iv; type: ADME, organism-based, Macaca fascicularis; settings: in vivo
[23] = Clearance in cynomolgus monkey at 2 mg/kg, iv; type: ADME, organism-based, Macaca fascicularis; settings: in vivo
[24] = biological target: T3, Tyrosine-protein kinase ITK/TSK (Homo sapiens, UniProt Q08881); assay: Inhibition of ITK in human peripheral T cells assessed as suppression of TCR/anti-CD3-stimulated protein catalyzed PLCgamma1 phosphorylation; type: cell-based, T-cell
T3 sequence (Q08881 whole entry): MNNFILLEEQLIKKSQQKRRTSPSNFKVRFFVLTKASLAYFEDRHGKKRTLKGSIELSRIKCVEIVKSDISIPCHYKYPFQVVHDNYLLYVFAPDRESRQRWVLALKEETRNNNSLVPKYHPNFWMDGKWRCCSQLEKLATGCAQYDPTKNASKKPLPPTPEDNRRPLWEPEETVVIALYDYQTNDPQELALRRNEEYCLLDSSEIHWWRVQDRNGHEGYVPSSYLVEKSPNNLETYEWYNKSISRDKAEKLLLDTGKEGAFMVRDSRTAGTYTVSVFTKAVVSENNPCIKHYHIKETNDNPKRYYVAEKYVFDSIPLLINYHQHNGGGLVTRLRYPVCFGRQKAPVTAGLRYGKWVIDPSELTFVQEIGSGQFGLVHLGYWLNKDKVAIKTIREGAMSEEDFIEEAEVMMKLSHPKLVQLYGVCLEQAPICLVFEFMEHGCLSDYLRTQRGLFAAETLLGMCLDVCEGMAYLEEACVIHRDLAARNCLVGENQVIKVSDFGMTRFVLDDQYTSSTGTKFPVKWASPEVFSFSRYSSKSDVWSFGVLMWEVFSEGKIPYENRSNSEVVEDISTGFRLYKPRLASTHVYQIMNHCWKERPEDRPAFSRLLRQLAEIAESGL

[25] = Mutagenicity in Salmonella typhimurium by Ames test; type: toxicity; settings: salmonella enterica subsp. enterica serovar typhimurium
[26] = biological target: T1, Tyrosine-protein kinase BTK; assay: Inhibition of BTK in human peripheral B cells assessed as suppression of CD40/CD40L-stimulated CD69 surface expression; type: cell-based
[27] = biological target: Voltage-gated inwardly rectifying potassium channel KCNH2 (Homo sapiens, UniProt Q12809); assay: Inhibition of human ERG by patch clamp assay
Sequence of Voltage-gated inwardly rectifying potassium channel KCNH2 (Q12809 whole entry): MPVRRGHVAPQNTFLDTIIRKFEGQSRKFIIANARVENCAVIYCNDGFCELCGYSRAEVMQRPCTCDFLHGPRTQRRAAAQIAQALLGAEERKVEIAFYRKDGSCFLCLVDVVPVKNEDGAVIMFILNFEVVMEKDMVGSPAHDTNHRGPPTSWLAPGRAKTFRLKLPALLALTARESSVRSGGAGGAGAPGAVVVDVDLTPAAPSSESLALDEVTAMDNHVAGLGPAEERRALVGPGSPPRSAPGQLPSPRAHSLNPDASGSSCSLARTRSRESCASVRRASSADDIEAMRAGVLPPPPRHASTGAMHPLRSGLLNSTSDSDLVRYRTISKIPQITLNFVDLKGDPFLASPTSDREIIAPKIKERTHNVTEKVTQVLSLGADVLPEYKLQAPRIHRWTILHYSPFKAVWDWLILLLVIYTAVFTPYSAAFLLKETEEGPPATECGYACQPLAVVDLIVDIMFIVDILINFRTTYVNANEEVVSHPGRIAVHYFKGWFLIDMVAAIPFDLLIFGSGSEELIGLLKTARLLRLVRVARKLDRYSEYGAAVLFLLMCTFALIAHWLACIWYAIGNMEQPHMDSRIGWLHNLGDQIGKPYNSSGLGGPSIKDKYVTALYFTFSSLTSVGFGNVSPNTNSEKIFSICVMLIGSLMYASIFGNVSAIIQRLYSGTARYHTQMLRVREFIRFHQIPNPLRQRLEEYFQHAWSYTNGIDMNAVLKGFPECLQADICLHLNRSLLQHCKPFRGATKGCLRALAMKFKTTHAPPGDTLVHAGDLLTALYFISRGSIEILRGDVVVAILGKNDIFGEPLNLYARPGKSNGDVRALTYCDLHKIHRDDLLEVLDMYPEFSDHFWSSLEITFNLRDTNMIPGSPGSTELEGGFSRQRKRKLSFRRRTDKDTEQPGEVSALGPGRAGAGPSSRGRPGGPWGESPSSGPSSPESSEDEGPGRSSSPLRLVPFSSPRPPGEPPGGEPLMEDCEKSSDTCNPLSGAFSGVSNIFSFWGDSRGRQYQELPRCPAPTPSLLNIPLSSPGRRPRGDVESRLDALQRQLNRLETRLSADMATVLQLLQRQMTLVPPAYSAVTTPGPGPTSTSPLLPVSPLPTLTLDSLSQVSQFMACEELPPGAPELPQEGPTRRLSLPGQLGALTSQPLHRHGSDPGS

Compound: Cc1c(-c2c(F)cc(C(N)=O)c3[nH]c4c(c23)CC[C@H](C(C)(C)O)C4)cccc1-n1c(=O)c2cccc(F)c2n(C)c1=O (atropisomer R) [BMS-986142]
- fraction unbound [1]: 0.012
- bioavailability [2]: 100%
- solubility [3]: < 4 µg/mL
- Tmax [4]: 3 h
- pIC50 [5]: 5.96
- half-life [6]: 204 min
- Vd [7]: 1.3 L/kg
- Cmax [8]: 4.9 µM
- AUC [9]: 16 µM·h
- fraction unbound [10]: 0.009
- fraction unbound [11]: 0.015
- Cmax [12]: 4.9 µM
- clearance [13]: 4.2 mL/min/kg
- Cmax [14]: 850 nM
- pIC50 (Cytochrome P450 2C9): 4.77
- logD [15]: 4.06
- pIC50 (Cytochrome P450 2C19): 4.49
- pIC50 [16]: 8.52
- Cmax [17]: 2300 nM
- AUC [18]: 39 µM·h
- pIC50 (Cytochrome P450 2C8): 5.59
- Vd [19]: 1.2 L/kg
- metabolised at 24 h [20]: < 2%
- AUC [21]: 39 µM·h
- MRT [22]: 4.7 h
- clearance [23]: 10 mL/min/kg
- pIC50 [24]: 6.39
- Activity [25]: Non-Toxic
- pIC50 [26]: < 5.00
- pIC50 [27]: 5.26
